From ChEMBL document CHEMBL4406882, “The plant-derived chalcone Xanthoangelol targets the membrane of Gram-positive bacteria” (Bioorg Med Chem, 2019)
≈ marks a conversion by molar mass, not a printed value. Calls of active or inactive are those of the source. The calls are words filed in the database; no cut-off is given here.

Key:
Bacillus subtilis [1] = experiment: Induction of PspA protein expression in Bacillus subtilis 168 at 2.3 uM incubated for 15 mins by 35S-methionine pulse labeling based 2D-PAGE analysis; type: functional, organism-based
Bacillus subtilis [2] = experiment: Induction of MenB protein expression in Bacillus subtilis 168 at 2.3 uM incubated for 15 mins by 35S-methionine pulse labeling based 2D-PAGE analysis; type: functional, organism-based
Bacillus subtilis [3] = experiment: Induction of Cah protein expression in Bacillus subtilis 168 at 2.3 uM incubated for 15 mins by 35S-methionine pulse labeling based 2D-PAGE analysis; type: functional, organism-based
Bacillus subtilis [4] = experiment: Induction of AroA protein expression in Bacillus subtilis 168 at 2.3 uM incubated for 15 mins by 35S-methionine pulse labeling based 2D-PAGE analysis; type: functional, organism-based
[5] = Selectivity index, ratio of IC50 for human HEK293 cells to MIC90 for methicillin-resistant Staphylococcus aureus ATCC 700699; type: toxicity; conditions: read-out: Selectivity Index
Bacillus subtilis [6] = experiment: Induction of YdjE protein expression in Bacillus subtilis 168 at 2.3 uM incubated for 15 mins by 35S-methionine pulse labeling based 2D-PAGE analysis; type: functional, organism-based
Bacillus subtilis [7] = experiment: Induction of GroEL.2 protein expression in Bacillus subtilis 168 at 2.3 uM incubated for 15 mins by 35S-methionine pulse labeling based 2D-PAGE analysis; type: functional, organism-based
Staphylococcus aureus [8] = experiment: Induction of membrane integrity impairment in methicillin resistant Staphylococcus aureus Mu50 assessed as increase in release of ATP at 1 to 16 times MIC incubated for 1 hr by BacTiter-Glo Assay; type: functional, organism-based
Bacillus subtilis [9] = experiment: Induction of BdhA protein expression in Bacillus subtilis 168 at 2.3 uM incubated for 15 mins by 35S-methionine pulse labeling based 2D-PAGE analysis; type: functional, organism-based
[10] = Cytotoxicity against human CLS54 cells assessed as reduction in cell viability incubated for 48 hrs by resazurin reagent based assay
Bacillus subtilis [11] = experiment: Induction of Tpx protein expression in Bacillus subtilis 168 at 2.3 uM incubated for 15 mins by 35S-methionine pulse labeling based 2D-PAGE analysis; type: functional, organism-based
Bacillus subtilis [12] = experiment: Induction of NfrA protein expression in Bacillus subtilis 168 at 2.3 uM incubated for 15 mins by 35S-methionine pulse labeling based 2D-PAGE analysis; type: functional, organism-based
Bacillus subtilis [13] = experiment: Induction of DnaK.1 protein expression in Bacillus subtilis 168 at 2.3 uM incubated for 15 mins by 35S-methionine pulse labeling based 2D-PAGE analysis; type: functional, organism-based
Bacillus subtilis [14] = experiment: Induction of SerA protein expression in Bacillus subtilis 168 at 2.3 uM incubated for 15 mins by 35S-methionine pulse labeling based 2D-PAGE analysis; type: functional, organism-based
Bacillus subtilis [15] = experiment: Induction of YqjE protein expression in Bacillus subtilis 168 at 2.3 uM incubated for 15 mins by 35S-methionine pulse labeling based 2D-PAGE analysis; type: functional, organism-based
[16] = (§1) Cytotoxicity against human HepG2 cells assessed as reduction in cell viability incubated for 48 hrs by resazurin reagent based assay; conditions: human, HepG2 cells
HepG2 = experiment: as §1; conditions: Homo sapiens, HepG2, 48 h
Bacillus subtilis [17] = experiment: Induction of YwfI protein expression in Bacillus subtilis 168 at 2.3 uM incubated for 15 mins by 35S-methionine pulse labeling based 2D-PAGE analysis; type: functional, organism-based
Bacillus subtilis [18] = experiment: Induction of ClpC protein expression in Bacillus subtilis 168 at 2.3 uM incubated for 15 mins by 35S-methionine pulse labeling based 2D-PAGE analysis; type: functional, organism-based
Bacillus subtilis [19] = experiment: Induction of ArgB protein expression in Bacillus subtilis 168 at 2.3 uM incubated for 15 mins by 35S-methionine pulse labeling based 2D-PAGE analysis; type: functional, organism-based
Bacillus subtilis [20] = experiment: Induction of ClpP protein expression in Bacillus subtilis 168 at 2.3 uM incubated for 15 mins by 35S-methionine pulse labeling based 2D-PAGE analysis; type: functional, organism-based
Staphylococcus aureus [21] = experiment: Induction of membrane integrity impairment in methicillin-resistant Staphylococcus aureus ATCC 700699 at 12.5 to 25 uM measured for 3 hrs by PI staining based fluorescence assay; type: functional, organism-based
HEK293 = experiment: (§2) Cytotoxicity against human HEK293 cells assessed as reduction in cell viability incubated for 48 hrs by resazurin reagent based assay; conditions: Homo sapiens, HEK293, 48 h
[22] = as §2; conditions: human, HEK293 cells
Bacillus subtilis [23] = experiment: Induction of PepF protein expression in Bacillus subtilis 168 at 2.3 uM incubated for 15 mins by 35S-methionine pulse labeling based 2D-PAGE analysis; type: functional, organism-based
Erythrocyte = experiment: Hemolytic activity against human erythrocytes at =>100 uM measured up to 24 hrs; type: ADME, cell-based
Bacillus subtilis [24] = experiment: Induction of LiaH.1 protein expression in Bacillus subtilis 168 at 2.3 uM incubated for 15 mins by 35S-methionine pulse labeling based 2D-PAGE analysis; type: functional, organism-based
[25] = Selectivity index, ratio of IC50 for human THP1 cells to MIC90 for methicillin-resistant Staphylococcus aureus ATCC 700699; type: toxicity; conditions: read-out: Selectivity Index
Enterococcus faecalis = experiment: Antibacterial activity against Enterococcus faecalis ATCC 29212 by broth micro dilution method; type: functional
[26] = (§3) Cytotoxicity against human THP1 cells assessed as reduction in cell viability incubated for 48 hrs by resazurin reagent based assay; set-up: species or system THP-1; conditions: human, THP1 cells
THP-1 = experiment: as §3; conditions: Homo sapiens, THP-1, 48 h
Bacillus subtilis [27] = experiment: Induction of GroEL.3 protein expression in Bacillus subtilis 168 at 2.3 uM incubated for 15 mins by 35S-methionine pulse labeling based 2D-PAGE analysis; type: functional, organism-based
[28] = Selectivity index, ratio of IC50 for human MRC5 cells to MIC90 for methicillin-resistant Staphylococcus aureus ATCC 700699; type: toxicity; conditions: read-out: Selectivity Index
Staphylococcus aureus [29] = experiment: Bactericidal activity against methicillin-resistant Staphylococcus aureus ATCC 700699 assessed as reduction in bacterial CFU at 4 times MIC measured for 30 mins; type: functional

Structure (SMILES): CC(C)=CCC/C(C)=C/Cc1c(O)ccc(C(=O)/C=C/c2ccc(O)cc2)c1O [XANTHOANGELOL]
- Activity (Bacillus subtilis [1]): Active
- Activity (Bacillus subtilis [2]): Active
- Activity (Bacillus subtilis [3]): Active
- Activity (Bacillus subtilis [4]): Active
- selectivity ratio [5]: 16.2
- Activity (Bacillus subtilis [6]): Active
- Activity (Bacillus subtilis [7]): Active
- Activity (Staphylococcus aureus [8]): Active
- Activity (Bacillus subtilis [9]): Active
- IC50 ([10]; Homo sapiens, 48 h): 58.8 µM
- IC90 at 48 h ([10]; human, CLS54 cells): 85.8 µM
- Activity (Bacillus subtilis [11]): Active
- Activity (Bacillus subtilis [12]): Active
- Activity (Bacillus subtilis [13]): Active
- Activity (Bacillus subtilis [14]): Active
- Activity (Bacillus subtilis [15]): Active
- IC90 at 48 h [16]: 37.4 µM
- IC50 (HepG2): 13.7 µM
- Activity (Bacillus subtilis [17]): Active
- Activity (Bacillus subtilis [18]): Active
- Activity (Bacillus subtilis [19]): Active
- Activity (Bacillus subtilis [20]): Active
- Activity (Staphylococcus aureus [21]): Active
- IC50 (HEK293): 21.5 µM
- IC90 at 48 h [22]: 44.8 µM
- Activity (Bacillus subtilis [23]): Active
- Activity (Erythrocyte): Toxic
- Activity (Bacillus subtilis [24]): Active
- selectivity ratio [25]: 17.7
- MIC (Enterococcus faecalis): 12.5 µM (≈ 4.91 µg/mL)
- IC90 at 48 h [26]: 39.1 µM
- IC50 (THP-1): 23.6 µM
- Activity (Bacillus subtilis [27]): Active
- selectivity ratio [28]: 16.3
- Activity (Staphylococcus aureus [29]): <20 CFU/ml
